# ChEMBL document CHEMBL1141715, “Novel BK channel openers containing dehydroabietic acid skeleton: structure-activity relationship for peripheral substituents on ring C” (Bioorg Med Chem Lett, 2008)
# Target: Calcium-activated potassium channel subunit alpha-1 (Homo sapiens) (UniProt Q12791)
# Test: Channel opening activity at human BKalpha channel expressed in CHOK1 cells assessed as ionic current amplitude at 30 uM at holding potential of -90 mV by population patch clamp technique relative to untreated control
# Assay type: cell-based
# Settings: CHO-K1
# Chain of Calcium-activated potassium channel subunit alpha-1 (Homo sapiens) (Q12791 whole entry): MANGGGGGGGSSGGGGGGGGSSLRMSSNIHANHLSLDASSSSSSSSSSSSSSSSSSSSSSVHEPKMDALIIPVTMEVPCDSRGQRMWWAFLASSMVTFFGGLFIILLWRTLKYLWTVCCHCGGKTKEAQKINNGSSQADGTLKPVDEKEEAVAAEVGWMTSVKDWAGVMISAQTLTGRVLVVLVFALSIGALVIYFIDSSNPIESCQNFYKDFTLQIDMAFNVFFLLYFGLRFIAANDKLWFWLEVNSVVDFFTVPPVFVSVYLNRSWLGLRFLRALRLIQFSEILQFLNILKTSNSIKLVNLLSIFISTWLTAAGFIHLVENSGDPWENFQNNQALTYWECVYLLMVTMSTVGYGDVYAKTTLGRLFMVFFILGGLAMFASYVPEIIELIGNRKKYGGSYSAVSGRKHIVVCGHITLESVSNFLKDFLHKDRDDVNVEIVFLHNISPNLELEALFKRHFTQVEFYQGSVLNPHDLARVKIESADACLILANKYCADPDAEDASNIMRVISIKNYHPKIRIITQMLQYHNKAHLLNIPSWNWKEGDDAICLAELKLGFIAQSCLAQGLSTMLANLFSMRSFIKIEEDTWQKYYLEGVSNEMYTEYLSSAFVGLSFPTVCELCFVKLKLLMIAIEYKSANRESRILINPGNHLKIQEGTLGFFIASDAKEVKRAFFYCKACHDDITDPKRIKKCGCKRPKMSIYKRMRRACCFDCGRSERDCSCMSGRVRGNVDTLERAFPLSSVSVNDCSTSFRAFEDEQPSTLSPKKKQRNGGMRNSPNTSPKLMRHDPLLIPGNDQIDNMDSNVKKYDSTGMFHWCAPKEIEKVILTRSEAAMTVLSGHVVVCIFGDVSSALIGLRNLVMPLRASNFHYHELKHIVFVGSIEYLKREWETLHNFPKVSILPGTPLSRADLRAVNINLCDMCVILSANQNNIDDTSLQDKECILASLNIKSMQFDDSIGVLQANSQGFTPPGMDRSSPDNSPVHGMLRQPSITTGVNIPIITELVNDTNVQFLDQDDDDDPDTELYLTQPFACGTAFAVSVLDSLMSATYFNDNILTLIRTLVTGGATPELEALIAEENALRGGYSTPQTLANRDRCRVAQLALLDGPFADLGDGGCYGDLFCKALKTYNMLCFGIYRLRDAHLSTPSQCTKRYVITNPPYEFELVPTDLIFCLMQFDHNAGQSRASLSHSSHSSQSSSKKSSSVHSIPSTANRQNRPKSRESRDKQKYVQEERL
row,Activity,SMILES
1,94.1%,COc1ccc(C(=O)Nc2cc3c(cc2C(C)C)CC[C@H]2[C@](C)(C(=O)O)CCC[C@]32C)cc1
2,83.7%,CC(C)c1cc2c(cc1OCc1ccc3ccccc3c1)[C@@]1(C)CCC[C@@](C)(C(=O)O)[C@@H]1CC2
3,81.8%,CC(C)c1cc2c(cc1NC(=O)c1cc(C(F)(F)F)cc(C(F)(F)F)c1)[C@@]1(C)CCC[C@@](C)(C(=O)O)[C@@H]1CC2
4,94.4%,COc1ccc(Cl)cc1NC(=O)Nc1cc2c(cc1C(C)C)CC[C@H]1[C@](C)(C(=O)O)CCC[C@]21C
5,88.9%,CC(C)c1cc2c(cc1N)[C@@]1(C)CCC[C@@](C)(C(=O)O)[C@@H]1CC2
6,128%,CC(C)c1cc2c(cc1NC(=O)c1ccc(C(F)(F)F)cc1)[C@@]1(C)CCC[C@@](C)(C(=O)O)[C@@H]1CC2
7,86.5%,COc1ccccc1C(=O)Nc1cc2c(cc1C(C)C)CC[C@H]1[C@](C)(C(=O)O)CCC[C@]21C
8,88.2%,CC(C)c1ccc2c(c1N)CC[C@H]1[C@](C)(C(=O)O)CCC[C@]21C
9,103%,CCCCCCCCCCCC(=O)Nc1cc2c(cc1C(C)C)CC[C@H]1[C@](C)(C(=O)O)CCC[C@]21C
10,89.5%,CC(C)c1cc2c(cc1OCc1ccccc1)[C@@]1(C)CCC[C@@](C)(C(=O)O)[C@@H]1CC2
11,156%,CC(C)c1cc2c(cc1NC(=O)Nc1ccc(F)c(Cl)c1)[C@@]1(C)CCC[C@@](C)(C(=O)O)[C@@H]1CC2
12,180%,CC(C)c1c(Cl)cc2c(c1Cl)CC[C@H]1[C@](C)(C(=O)O)CCC[C@]21C
13,92.4%,CCCC(=O)Nc1cc2c(cc1C(C)C)CC[C@H]1[C@](C)(C(=O)O)CCC[C@]21C
14,89.9%,CCNC(=O)Nc1cc2c(cc1C(C)C)CC[C@H]1[C@](C)(C(=O)O)CCC[C@]21C
15,118%,CCCOc1cc2c(cc1C(C)C)CC[C@H]1[C@](C)(C(=O)O)CCC[C@]21C
16,95.9%,CC(C)c1cc2c(cc1NC(=O)C1CCCCC1)[C@@]1(C)CCC[C@@](C)(C(=O)O)[C@@H]1CC2
17,138%,CC(C)c1cc2c(cc1NC(=O)Nc1ccc(C(F)(F)F)cc1)[C@@]1(C)CCC[C@@](C)(C(=O)O)[C@@H]1CC2
18,168%,CC(C)c1cc2c(cc1NC(=O)Nc1ccc(Cl)c(C(F)(F)F)c1)[C@@]1(C)CCC[C@@](C)(C(=O)O)[C@@H]1CC2
19,130%,CC(C)C(=O)Nc1cc2c(cc1C(C)C)CC[C@H]1[C@](C)(C(=O)O)CCC[C@]21C
20,128%,CC(C)c1cc2c(cc1NC(=O)Nc1cc(C(F)(F)F)ccc1Cl)[C@@]1(C)CCC[C@@](C)(C(=O)O)[C@@H]1CC2
21,139%,CC(C)c1cc2c(cc1NC(=O)Nc1ccc(F)c(F)c1)[C@@]1(C)CCC[C@@](C)(C(=O)O)[C@@H]1CC2
22,136%,CC(C)c1cc2c(cc1NC(=O)Nc1cccc(Cl)c1)[C@@]1(C)CCC[C@@](C)(C(=O)O)[C@@H]1CC2
23,240%,CC(C)c1cc2c(cc1NC(=S)Nc1cc(C(F)(F)F)cc(C(F)(F)F)c1)[C@@]1(C)CCC[C@@](C)(C(=O)O)[C@@H]1CC2
24,90%,CC(C)c1cc2c(cc1NC(=O)c1ccccc1)[C@@]1(C)CCC[C@@](C)(C(=O)O)[C@@H]1CC2
25,59.4%,CC(C)c1cc2c(cc1NC(=O)c1ccccc1C(F)(F)F)[C@@]1(C)CCC[C@@](C)(C(=O)O)[C@@H]1CC2
26,200%,CC(C)c1c([N+](=O)[O-])cc2c(c1[N+](=O)[O-])CC[C@H]1[C@](C)(C(=O)O)CCC[C@]21C
27,91.6%,CC(C)c1cc2c(cc1NC(=O)C1CC1)[C@@]1(C)CCC[C@@](C)(C(=O)O)[C@@H]1CC2

# The remaining lines, values behind:
row,SMILES,Activity
1,CC(C)Oc1cc2c(cc1C(C)C)CC[C@H]1[C@](C)(C(=O)O)CCC[C@]21C,125%
2,COc1ccc(NC(=O)Nc2cc3c(cc2C(C)C)CC[C@H]2[C@](C)(C(=O)O)CCC[C@]32C)cc1,107%
3,CC(C)c1cc2c(cc1NC(=O)Nc1cc(Cl)cc(Cl)c1)[C@@]1(C)CCC[C@@](C)(C(=O)O)[C@@H]1CC2,151%
4,CC(C)c1cc2c(cc1NC(=O)c1ccc(F)cc1)[C@@]1(C)CCC[C@@](C)(C(=O)O)[C@@H]1CC2,83.4%
5,CC(C)c1cc2c(cc1NC(=S)Nc1cccc(C(F)(F)F)c1)[C@@]1(C)CCC[C@@](C)(C(=O)O)[C@@H]1CC2,143%
6,CC(C)c1cc2c(cc1NC(=O)Cc1ccccc1)[C@@]1(C)CCC[C@@](C)(C(=O)O)[C@@H]1CC2,90.9%
7,CC(C)c1c(N)cc2c(c1N)CC[C@H]1[C@](C)(C(=O)O)CCC[C@]21C,110%
8,CC(C)c1cc2c(cc1NC(=O)Nc1ccccc1)[C@@]1(C)CCC[C@@](C)(C(=O)O)[C@@H]1CC2,72.7%
9,CCCCCCOc1cc2c(cc1C(C)C)CC[C@H]1[C@](C)(C(=O)O)CCC[C@]21C,78.7%
10,COc1cc2c(cc1C(C)C)CC[C@H]1[C@](C)(C(=O)O)CCC[C@]21C,85.9%
11,CC(=O)Nc1cc2c(cc1C(C)C)CC[C@H]1[C@](C)(C(=O)O)CCC[C@]21C,96.1%
12,CCC(=O)Nc1cc2c(cc1C(C)C)CC[C@H]1[C@](C)(C(=O)O)CCC[C@]21C,90.2%
13,CC(C)c1cc2c(cc1OCc1ccc(Cl)cc1)[C@@]1(C)CCC[C@@](C)(C(=O)O)[C@@H]1CC2,91.6%
14,CC(C)c1cc2c(cc1O)[C@@]1(C)CCC[C@@](C)(C(=O)O)[C@@H]1CC2,83%
15,CC(C)c1cc2c(cc1NC(=O)Nc1cccc(C(F)(F)F)c1)[C@@]1(C)CCC[C@@](C)(C(=O)O)[C@@H]1CC2,99.9%
16,CCCCCCCCCOc1cc2c(cc1C(C)C)CC[C@H]1[C@](C)(C(=O)O)CCC[C@]21C,81.8%
17,CC(C)c1cc2c(cc1OCCCc1ccccc1)[C@@]1(C)CCC[C@@](C)(C(=O)O)[C@@H]1CC2,93.2%
18,CC(C)c1cc2c(cc1NC(=O)c1ccc(Cl)cc1)[C@@]1(C)CCC[C@@](C)(C(=O)O)[C@@H]1CC2,108%
19,CC(C)c1cc2c(cc1NC(=O)c1cccc(C(F)(F)F)c1)[C@@]1(C)CCC[C@@](C)(C(=O)O)[C@@H]1CC2,92.5%
20,CC(C)c1cc2c(cc1NC(=O)Nc1cc(C(F)(F)F)cc(C(F)(F)F)c1)[C@@]1(C)CCC[C@@](C)(C(=O)O)[C@@H]1CC2,132%
21,CC(C)c1cc2c(cc1NC(=O)CN1CCCCC1)[C@@]1(C)CCC[C@@](C)(C(=O)O)[C@@H]1CC2,107%
22,CC(C)c1cc2c(cc1NC(=O)Nc1ccccc1C(F)(F)F)[C@@]1(C)CCC[C@@](C)(C(=O)O)[C@@H]1CC2,114%
